Target: T1, human GnRH receptor (Homo sapiens, UniProt P30968)
T1 sequence (P30968 1-328): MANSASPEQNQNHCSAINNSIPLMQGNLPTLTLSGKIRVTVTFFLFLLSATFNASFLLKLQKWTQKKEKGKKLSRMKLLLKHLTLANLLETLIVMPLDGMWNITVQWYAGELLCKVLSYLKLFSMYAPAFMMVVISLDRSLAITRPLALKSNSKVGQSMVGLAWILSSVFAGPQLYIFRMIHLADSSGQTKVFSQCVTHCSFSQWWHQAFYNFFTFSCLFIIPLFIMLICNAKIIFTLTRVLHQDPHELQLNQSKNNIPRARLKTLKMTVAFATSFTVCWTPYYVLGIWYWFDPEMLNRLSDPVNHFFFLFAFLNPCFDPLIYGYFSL
Experiment: IP-One HTRF assay with buserelin (at EC80) stimulation
Type: cell-based
Details: CHO cells stably expressing human GnRH receptor, read-out: Potency in IP-One HTRF assay, given as IC50
Description: 2.3. IP-One HTRF® Assay By using homogenous time-resolved fluorescence resonance energy transfer (HTRF), the generation of one component of the GnRH—R signalling cascade can be measured. After stimulation of CHO cells stably expressing human GnRH receptor (established by Prof. Thomas Gudermann, currently University of Marburg, Germany; supplied as frozen cell aliquots by Cell Culture Services, Hamburg, Germany) with the EC80 of the GnRH agonist buserelin, Gq protein-coupled receptor signalling cascade is activated resulting in PLC-dependent cleavage of PIP2 to Inositol-1,4,5-triphosphate (IP3) and Diacylglycerol. The second messenger IP3 is degraded intracellularly to myo-inositol. Inhibition of the final degradation step from Inositol-1-phosphate (IP1) to myo-inositol by addition of lithium chloride leads to accumulation of IP1 in the cells. In cell lysates, IP1 can be detected via an antibody-based HTRF detection technology, where IP1 can displace the FRET acceptor IP1-d2 from binding by Terbium-labelled anti-IP1 antibody as donor resulting in a signal decrease. Compounds were tested for their capability of inhibiting GnRH—R activation by buserelin. For all IP-One HTRF® assays reagents of Cisbio Bioassays (IP-One Tb Jumbo kit, #62IPAPEJ; Cisbio Bioassays, Bagnols sur Cèze Cedex, France) were used.
For the assay, frozen cell aliquots were thawed and a cell suspension (3.33×10^6 cells/mL) containing IP1-d2 (dilution 1:40) was prepared and incubated at 37° C. After 1 h 3 μl of the cell suspension were added to 50 nl of a 100-fold concentrated solution of the test compound in DMSO pre-dispensed in a well of a white low-volume 384-well microtiter plate (Greiner Bio-One, Frickenhausen, Germany). […] Plates were incubated for 1 h at 37° C. and 5% carbon dioxide before the cells were lysed by adding 3 μl Terbium-labelled anti-IP1 antibody (1:40) diluted in Conjugate & Lysis buffer as supplied with the kit. After an incubation for 1 h at 22° C. to enable complete cell lysis and antibody binding to free IP1 or IP1-d2, plates were measured in an HTRF reader, e.g. a RUBYstar, PHERAstar (both BMG Labtechnologies, Offenburg, Germany) or a Viewlux (PerkinElmer LAS, Rodgau-Jügesheim, Germany).
From the fluorescence emissions at 665 nm (FRET) and at 620 nm (background signal of Terbium-antibody), the ratio (emission at 665 nm divided by emission at 620 nm) was calculated and the data were normalized (reaction without test compound=0% inhibition; all other assay components except agonist=100% inhibition). On the same microtiter plate, compounds were tested at 10 different concentrations in the range of 20 μM to 1 nM (20 μM, 6.7 μM, 2.2 μM, 0.74 μM, 0.25 μM, 82 nM, 27 nM, 9.2 nM, 3.1 nM and 1 nM; dilution series prepared before the assay at the level of the 100-fold conc. stock solutions by serial 1:3 dilutions in 100% DMSO) in duplicate values for each concentration. By using an in-house software, the IC50 values were calculated by a 4 parameter fit.

Row | SMILES | IC50 [nM]
1 | O=C(O)c1cccc(S(=O)(=O)N2c3ccc(C(=O)NCc4ccccc4Cl)cc3C3(CCS(=O)(=O)CC3)C2C2CC2)c1 (single isomer, unassigned) [Example 61.2, 3-({5-[(2-chlorobenzyl)carbamoyl]-2-cyclopropyl-1′,1′-dioxido-2′,3′,5′,6′-tetrahydrospiro[indole-3,4′-thiopyran]-1(2H)-yl}sulfonyl)benzoic acid] | 2010
2 | O=C(NCc1ncccc1C(F)(F)F)c1ccc2c(c1)C1(CCS(=O)(=O)CC1)C(C1CC1)N2S(=O)(=O)c1ccc(F)cc1 (single isomer, unassigned) [Example 15.1, 2-cyclopropyl-1-[(4-fluorophenyl)sulfonyl]-N-{[3-(trifluoromethyl)pyridin-2-yl]methyl}-1,2,2′,3′,5′,6′-hexahydrospiro[indole-3,4′-thiopyran]-5-carboxamide 1′,1′-dioxide] | > 20000
3 | O=C(NCc1ncccc1Cl)c1ccc2c(c1)C1(CCS(=O)(=O)CC1)C(C1CC1)N2S(=O)(=O)c1ccc(F)cc1 (single isomer, unassigned) [Example 14.2, N-[(3-Chloropyridin-2-yl)methyl]-2-cyclopropyl-1-[(4-fluorophenyl)sulfonyl]-1,2,2′,3′,5′,6′-hexahydrospiro[indole-3,4′-thiopyran]-5-carboxamide 1′,1′-dioxide] | 5390
4 | CC1N(S(=O)(=O)c2ccc(F)cc2)c2ccc(C(=O)NCc3ncccc3Cl)cc2C12CCS(=O)(=O)CC2 (centres unmarked) [Example 26, N-[(3-chloropyridin-2-yl)methyl]-1-[(4-fluorophenyl)sulfonyl]-2-methyl-1,2,2′,3′,5′,6′-hexahydrospiro[indole-3,4′-thiopyran]-5-carboxamide 1′,1′-dioxide] | 646
5 | N#Cc1cccc(S(=O)(=O)N2c3ccc(C(=O)Nc4ccon4)cc3C3(CCS(=O)(=O)CC3)C2C2CC2)c1 (single isomer, unassigned) [Example 80.2, 1-[(3-cyanophenyl)sulfonyl]-2-cyclopropyl-N-(1,2-oxazol-3-yl)-1,2,2′,3′,5′,6′-hexahydrospiro[indole-3,4′-thiopyran]-5-carboxamide 1′,1′-dioxide] | > 20000
6 | O=C(NCc1ncccc1C(F)(F)F)c1ccc2c(c1)C1(CCS(=O)(=O)CC1)C(C1CC1)N2S(=O)(=O)c1ccc(OC(F)F)cc1 (centres unmarked) [Example 93, 2-cyclopropyl-1-{[4-(difluoromethoxy)phenyl]sulfonyl}-N-{[3-(trifluoromethyl)pyridin-2-yl]methyl}-1,2,2′,3′,5′,6′-hexahydrospiro[indole-3,4′-thiopyran]-5-carboxamide 1′,1′-dioxide] | 53
7 | CC1N(S(=O)(=O)c2ccc(F)cc2)c2ccc(C(=O)NCc3ccccc3Cl)cc2C12CCOCC2 (single isomer, unassigned) [Example 2.1, N-(2-chlorobenzyl)-1-[(4-fluorophenyl)sulfonyl]-2-methyl-1,2,2′,3′,5′,6′-hexahydrospiro[indole-3,4′-pyran]-5-carboxamide] | 9320
8 | NC(=O)c1ccc(S(=O)(=O)N2c3ccc(C(=O)NCc4ccccc4Cl)cc3C3(CCS(=O)(=O)CC3)C2C2CC2)cc1 (centres unmarked) [Example 94, 1-[(4-carbamoylphenyl)sulfonyl]-N-(2-chlorobenzyl)-2-cyclopropyl-1,2,2′,3′,5′,6′-hexahydrospiro[indole-3,4′-thiopyran]-5-carboxamide 1′,1′-dioxide] | 222
9 | COc1cccc(S(=O)(=O)N2c3ccc(C(=O)Nc4cccc(S(N)(=O)=O)c4)cc3C3(CCS(=O)(=O)CC3)C2C2CC2)c1 (single isomer, unassigned) [Example 42.2, 2-cyclopropyl-1-[(3-methoxyphenyl)sulfonyl]-N-(3-sulfamoylphenyl)-1,2,2′,3′,5′,6′-hexahydrospiro[indole-3,4′-thiopyran]-5-carboxamide 1′,1′-dioxide] | 99
10 | O=C(NCc1ccccc1O)c1ccc2c(c1)C1(CCS(=O)(=O)CC1)C(C1CC1)N2S(=O)(=O)c1ccc(F)cc1 (centres unmarked) [Example 69, 2-cyclopropyl-1-[(4-fluorophenyl)sulfonyl]-N-(2-hydroxybenzyl)-1,2,2′,3′,5′,6′-hexahydrospiro[indole-3,4′-thiopyran]-5-carboxamide 1′,1′-dioxide] | 320
11 | O=C(NCCc1ccccc1Cl)c1ccc2c(c1)C1(CCS(=O)(=O)CC1)C(C1CC1)N2S(=O)(=O)c1ccc(F)cc1 (centres unmarked) [Example 25, N-[2-(2-chlorophenyl)ethyl]-2-cyclopropyl-1-[(4-fluorophenyl)sulfonyl]-1,2,2′,3′,5′,6′-hexahydrospiro[indole-3,4′-thiopyran]-5-carboxamide 1′,1′-dioxide] | 2620
12 | O=C(NCc1ccc(F)cc1Cl)c1ccc2c(c1)C1(CCS(=O)(=O)CC1)C(C1CC1)N2S(=O)(=O)c1ccc(F)cc1 (single isomer, unassigned) [Example 16.2, N-(2-chloro-4-fluorobenzyl)-2-cyclopropyl-1-[(4-fluorophenyl)sulfonyl]-1,2,2′,3′,5′,6′-hexahydrospiro[indole-3,4′-thiopyran]-5-carboxamide 1′,1′-dioxide] | 6840
13 | NS(=O)(=O)c1cccc(NC(=O)c2ccc3c(c2)C2(CCS(=O)(=O)CC2)C(C2CC2)N3S(=O)(=O)c2ccc(F)cc2)c1 (centres unmarked) [Example 30, 2-cyclopropyl-1-[(4-fluorophenyl)sulfonyl]-N-(3-sulfamoylphenyl)-1,2,2′,3′,5′,6′-hexahydrospiro[indole-3,4′-thiopyran]-5-carboxamide 1′,1′-dioxide] | 245
14 | N#Cc1ccc(S(=O)(=O)N2c3ccc(C(=O)NCc4ncccc4Cl)cc3C3(CCS(=O)(=O)CC3)C2C2CC2)cc1 (centres unmarked) [Example 70, N-[(3-chloropyridin-2-yl)methyl]-1-[(4-cyanophenyl)sulfonyl]-2-cyclopropyl-1,2,2′,3′,5′,6′-hexahydrospiro[indole-3,4′-thiopyran]-5-carboxamide 1′,1′-dioxide] | 63
15 | O=C(NCc1ncccc1C(F)(F)F)c1ccc2c(c1)C1(CCS(=O)(=O)CC1)C(C1CC1)N2S(=O)(=O)c1ccc(F)cc1 (single isomer, unassigned) [Example 15.2, 2-cyclopropyl-1-[(4-fluorophenyl)sulfonyl]-N-{[3-(trifluoromethyl)pyridin-2-yl]methyl}-1,2,2′,3′,5′,6′-hexahydrospiro[indole-3,4′-thiopyran]-5-carboxamide 1′,1′-dioxide] | 69
16 | N#Cc1cccc(S(=O)(=O)N2c3ccc(C(=O)Nc4ncco4)cc3C3(CCS(=O)(=O)CC3)C2C2CC2)c1 (centres unmarked) [Example 78, 1-[(3-cyanophenyl)sulfonyl]-2-cyclopropyl-N-(1,3-oxazol-2-yl)-1,2,2′,3′,5′,6′-hexahydrospiro[indole-3,4′-thiopyran]-5-carboxamide 1′,1′-dioxide] | 706
17 | COc1cccc(S(=O)(=O)N2c3ccc(C(=O)Nc4cccc(S(=O)(=O)N(C)C)c4)cc3C3(CCS(=O)(=O)CC3)C2C2CC2)c1 (single isomer, unassigned) [Example 43.2, 2-cyclopropyl-N-[3-(N,N-dimethylsulfamoyl)phenyl]-1-[(3-methoxyphenyl)sulfonyl]-1,2,2′,3′,5′,6′-hexahydrospiro[indole-3,4′-thiopyran]-5-carboxamide 1′,1′-dioxide] | 36
